Laboratory results: patent US20250000043A1, “NON-TRANSGENIC SUNFLOWER PLANTS HAVING INCREASED TOLERANCE TO HERBICIDES” (BASF Agricultural Solutions Seed US LLC, priority 2021, published 2025)
Like-named read-outs stand apart in the source and are kept apart here.

Tests used:
Type in all cases: biochemical, sunflower
[1] = system: PPO2_F383I mutant PPO2 enzyme; experiment: In vitro PPO inhibition assay, mutant enzyme (Example 5); conditions: PPO2_F383I versus wild type IC50
Text: (§1) To test whether the PPO2_F383I is the main cause of the observed saflufenacil tolerance, we used an in vitro to compare the inhibition potency (IC50) of different PPO inhibiting herbicides between wild-type and mutant PPO2 enzyme. The in vitro assay assesses the oxidation of protoporphyrinogen IX to protoporphyrin IX, catalyzed by the PPO enzyme. Both the wild type and mutant PPO2 proteins were heterologously expressed in E. coli and purified. Purified protein was mixed with different concentrations of the herbicide ranging from 10^−5M to 10^−11M and protein activity was measured. Protein activity is defined as the fluorescence per minute that the reaction generates. In the reaction, the purified PPO enzyme is mixed with substrate protoporphyrinogen IX and the herbicide. The product of the reaction is excited at 405 nm and produces a fluorescence at 630 nm which we detect. IC50 (in Mol) and tolerance factor were calculated.

[2] = molecular target: PPO2_F383I mutant PPO2 enzyme (Helianthus annuus, UniProt A0A251TWC2, F383I); experiment: as above
Text: as §1

[3] = molecular target: wild-type PPO2 enzyme (Helianthus annuus, UniProt A0A251TWC2); experiment: In vitro PPO inhibition assay, wild type enzyme (Example 5)
Text: as §1

wild-type PPO2 enzyme, sequence (A0A251TWC2 entry or part of it): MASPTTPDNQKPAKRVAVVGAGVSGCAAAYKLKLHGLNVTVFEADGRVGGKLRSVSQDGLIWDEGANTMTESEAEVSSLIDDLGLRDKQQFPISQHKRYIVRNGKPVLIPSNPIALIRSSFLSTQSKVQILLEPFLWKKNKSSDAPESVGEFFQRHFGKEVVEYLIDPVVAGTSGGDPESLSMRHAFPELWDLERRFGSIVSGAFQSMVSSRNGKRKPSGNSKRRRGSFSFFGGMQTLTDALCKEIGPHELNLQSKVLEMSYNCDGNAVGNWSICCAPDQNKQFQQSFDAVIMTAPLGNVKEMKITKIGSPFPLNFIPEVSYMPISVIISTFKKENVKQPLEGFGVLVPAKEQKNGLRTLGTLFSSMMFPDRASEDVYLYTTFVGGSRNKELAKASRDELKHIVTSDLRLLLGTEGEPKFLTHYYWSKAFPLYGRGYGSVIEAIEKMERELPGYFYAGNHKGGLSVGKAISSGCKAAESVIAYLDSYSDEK
PPO2_F383I mutant PPO2 enzyme (Helianthus annuus, UniProt A0A251TWC2, F383I), sequence (A0A251TWC2 entry or part of it F383I): as the sequence (A0A251TWC2 entry or part of it) above, with F383I counted along it

SMILES: C#CCN1C(=O)C(F)(F)Oc2cc(F)c(-n3c(=O)n(C)c(=S)n(C)c3=O)cc21 [Trifludimoxazin (Tirexor ™), 1,5-dimethyl-6-thioxo-3-(2,2,7-trifluoro-3-oxo-4-(prop-2-ynyl)-3,4-dihydro-2H-benzo[b][1,4]oxazin-6-yl)-1,3,5-triazinane-2,4-dione]
- Tolerance factor [1]: 3257
- IC50 [2]: 4560 nM
- IC50 [3]: 1.4 nM

SMILES: COC(=O)CCNC(=O)C(C)Sc1cc(-n2c(=O)cc(C(F)(F)F)n(C)c2=O)c(F)cc1Cl (stereo not drawn) [Tiafenacil]
- Tolerance factor [1]: 1398
- IC50 ([2]; purified enzyme expressed in E. coli, herbicide 10^-5 M to 10^-11 M, read-out: PPO2_F383I IC50): 1300 nM
- IC50 ([3]; purified enzyme expressed in E. coli, herbicide 10^-5 M to 10^-11 M, read-out: Wild type IC50): 0.93 nM
